Assay [1] addresses T1, Angiotensin receptor 1 (AT1) (Homo sapiens, UniProt P30556).
T1 construct: host or cells: Angiotensin receptor 1 (AT1) Cell Line (PathHunter)
T1 sequence (P30556 1-359): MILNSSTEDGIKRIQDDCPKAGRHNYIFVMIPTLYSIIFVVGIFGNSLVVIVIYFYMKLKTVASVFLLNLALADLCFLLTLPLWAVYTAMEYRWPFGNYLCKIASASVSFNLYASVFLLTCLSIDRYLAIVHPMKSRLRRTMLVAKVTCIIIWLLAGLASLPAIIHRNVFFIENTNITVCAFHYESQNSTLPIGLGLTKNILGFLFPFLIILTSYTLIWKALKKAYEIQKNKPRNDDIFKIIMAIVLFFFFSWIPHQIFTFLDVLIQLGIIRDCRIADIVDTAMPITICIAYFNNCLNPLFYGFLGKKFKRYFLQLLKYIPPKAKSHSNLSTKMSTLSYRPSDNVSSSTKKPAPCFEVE
The experiment in a line: AT1 DiscoveRx PathHunter β-arrestin counterscreen (antagonism of angiotensin II). Particulars: β-arrestin assay, n = 4 unless noted in parentheses; read-out: AT1 Potency IC50 (μM) Ave. ± S.E.M. The format is cell-based. The text has this:
(§1) All assays in Table 2, with the exception of the […] counterscreen, utilize the DiscoveRx PathHunter® β-arrestin assay technology. Unlike imaging or other second messenger assays, the DiscoveRx β-arrestin assay allows for a direct measure of GPCR activation by detection of β-arrestin binding to the APJ, and in the case of the counterscreen, the AT1 receptor. […] In cells that stably express these fusion proteins, ligand stimulation results in the interaction of β-arrestin and the ProLink-tagged GPCR, forcing the complementation of the two β-galactosidase fragments and resulting in the formation of a functional enzyme that converts substrate to detectable luminescent signal.
Next, varying volumes of stock test compounds in DMSO were transferred to each well to achieve appropriate dose response concentrations and range. DMSO was backfilled into each test compound well to a total volume of 80 nL to achieve equal concentration of DMSO in all wells. This was followed by an addition of 1 μL of 300 nM reference agonist, Angiotensin II, to the negative and test compound wells, and 1 μL of assay media to positive control wells. The assay was incubated for 90 mins at room temperature, and then developed with 3 μL of detection reagent for 60 mins and luminescence read on a Perkin Elmer ViewLux.

The next assay addresses T2, APJ (Homo sapiens, UniProt P35414).
T2 sequence (P35414 1-380): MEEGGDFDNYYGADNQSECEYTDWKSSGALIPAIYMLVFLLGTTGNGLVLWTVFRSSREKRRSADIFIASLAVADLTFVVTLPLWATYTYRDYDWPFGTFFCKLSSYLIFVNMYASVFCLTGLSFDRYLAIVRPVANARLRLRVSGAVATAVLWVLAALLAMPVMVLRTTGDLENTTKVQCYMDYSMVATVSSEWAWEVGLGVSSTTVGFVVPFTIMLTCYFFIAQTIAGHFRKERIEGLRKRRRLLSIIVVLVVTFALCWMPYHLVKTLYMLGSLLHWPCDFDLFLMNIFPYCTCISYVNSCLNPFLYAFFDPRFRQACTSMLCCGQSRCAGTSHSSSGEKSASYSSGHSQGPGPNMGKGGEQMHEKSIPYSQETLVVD
The assay is described as follows: APJ DiscoveRx PathHunter β-arrestin assay (antagonism of apelin-13). The class given is cell-based. Also on record: host or cells: Angiotensin II receptor-like 1 (AGTRL-1) Cell Line (PathHunter). Particulars: for IC50: β-arrestin assay, n = 4 unless noted in parentheses, read-out: APJ Potency IC50 (μM) Ave. ± S.E.M. As for the experimental part:
The assay was incubated for 90 mins at room temperature, and then developed with 3 μL of detection reagent (PathHunter Detection Reagents (DiscoveRx, Cat#93-0001)) for 60 mins and luminescence read on a Perkin Elmer ViewLux.
as §1
Assay was incubated for 90 mins at room temperature, and then developed with 3 μL of detection reagent for 60 mins and luminescence read on a Perkin Elmer ViewLux. Initial actives were retested in duplicate at the 20 μM test concentration, and reconfirmed hits retested in full dose-response for compounds from resupplied MLSMR DMSO stock solutions.

Several values for one entry are separate records, joined by “and”; a condition that tells them apart may be missing. Identical values can stand only once. A value given as a limit tells only on which side of the number the result lay.

The record followed here is patent US20140005181A1, “SMALL MOLECULE ANTAGONISTS OF THE APELIN RECEPTOR FOR THE TREATMENT OF DISEASE” (Sanford-Burnham Medical Research Institute, priority 2012, published 2014).

The IC50 is the concentration needed to halve the response being measured.

In the case of `Cc1ccnc(SCc2cc(=O)c(OCc3ccc(Cl)c([N+](=O)[O-])c3)co2)n1` [Compound 67], the IC50 (in assay [1]; on APJ) was above 79 µM in each case.

On to `Cc1ccnc(SCc2cc(=O)c(OC(=O)c3ccc(C)c([N+](=O)[O-])c3)co2)n1` [Compound 30], for which, on APJ, the “SI = Selectivity Index: (IC50 AT1)/(IC50 APJ)” value (“SI = Selectivity Index” for short) is above 17 and the IC50 was 4.7 µM.

Take `O=C(Oc1coc(CSc2ccc(Cl)cc2)cc1=O)c1ccc(Cl)c([N+](=O)[O-])c1` [Compound 63]: the 50% inhibitory concentration (IC50) in assay [1] is above 79 µM. Further, at APJ, the “SI = Selectivity Index” value is recorded as above 17 and the IC50 came out at 4.53 ± 0.66 µM.

Consider `O=C(Oc1coc(CSc2ncccn2)cc1=O)c1ccc(Br)cc1` [Compound 9], for which the half-inhibitory concentration (IC50) on APJ was 18.2 µM.

Consider `O=c1cc(CSc2ccccc2)occ1O` [Compound 56], for which the IC50 (in assay [1]; on APJ) was above 79 µM in each case.

Regarding `O=C(Oc1coc(CSc2ncccn2)cc1=O)c1cccc([N+](=O)[O-])c1` [Compound 4], the IC50 at APJ came to 75.7 µM.

Turning to `Cc1ccnc(SCc2cc(=O)c(OC(=O)c3ccc([N+](=O)[O-])cc3)co2)n1` [Compound 33], on APJ, the “SI = Selectivity Index” value was >25 and >23; the IC50 was 3.11 µM and 4.32 µM.

In the case of `O=c1cc(CSc2ncccn2)occ1O` [Compound 58], the IC50 (in assay [1]; at APJ) was above 79 µM each time.

`Cc1cc(C)nc(SCc2cc(=O)c(OC(=O)c3ccc(C)c([N+](=O)[O-])c3)co2)n1` [Compound 50]: in assay [1], the half-maximal inhibitory concentration (IC50) was above 79 µM. Further, at APJ, the “SI = Selectivity Index” value is reported as above 3 and the IC50 was 25.3 ± 5.8 µM.

For `Cc1c(C(=O)Oc2coc(CSc3ncccn3)cc2=O)cccc1[N+](=O)[O-]` [Compound 22], the IC50 at APJ came out at 72.2 µM.

Regarding `Cc1ccnc(SCc2cc(=O)c(OC(=O)c3ccc(C#N)cc3)co2)n1` [Compound 34], at APJ, the “SI = Selectivity Index” value is >9 and >7; the half-inhibitory concentration (IC50) was 8.51 µM and 11.5 µM.

Take `Cc1cc(C)nc(SCc2cc(=O)c(OC(=O)c3cccc([N+](=O)[O-])c3C)co2)n1` [Compound 54]: the IC50 (in assay [1]; at APJ) was above 79 µM each time.

In the case of `Cc1cc(C)nc(SCc2cc(=O)c(OS(=O)(=O)c3ccc([N+](=O)[O-])cc3)co2)n1` [Compound 72], the IC50 (in assay [1]; at APJ) was above 79 µM each time.

Regarding `Cc1ccnc(SCc2cc(=O)c(OC(=O)c3ccc(C(F)(F)F)cc3)co2)n1` [Compound 35], on APJ, the IC50 was 20.6 µM.

As to `Cc1ccnc(SCc2cc(=O)c(OC(=O)c3ccco3)co2)n1` [Compound 75], the IC50 (in assay [1]; on APJ) was above 79 µM each time.

Regarding `Cc1cc(C)nc(SCc2cc(=O)c(OC(=O)c3ccc(S(=O)(=O)N(C)C)cc3)co2)n1` [Compound 51], the IC50 (in assay [1]; at APJ) was above 79 µM throughout.

Take `Cc1ccnc(SCc2cc(=O)c(OC(=O)c3cc(Cl)ccc3[N+](=O)[O-])co2)n1` [Compound 40]: the half-maximal inhibitory concentration (IC50) at APJ turned out to be 58.8 µM.

With `Cc1ccnc(SCc2cc(=O)c(NC(=O)c3ccc([N+](=O)[O-])cc3)co2)n1` [Compound 74], the half-inhibitory concentration (IC50) (in assay [1]; at APJ) was above 79 µM throughout.

In the case of `O=C(Oc1coc(CSc2ncccn2)cc1=O)c1ccc(C(F)(F)F)cc1` [Compound 8], the IC50 at APJ is 29 µM.

In the case of `Cc1ccnc(SCc2cc(=O)c(OCc3ccccc3)co2)n1` [Compound 66], the 50% inhibitory concentration (IC50) (in assay [1]; at APJ) was above 79 µM throughout.

Turning to `Cc1ccc(C(=O)Oc2coc(CSc3ncccn3)cc2=O)cc1[N+](=O)[O-]` [Compound 3], at APJ, the “SI = Selectivity Index” value is >11 and >7.2; the 50% inhibitory concentration (IC50) is 7.25 µM and 10.9 µM.

For `Cc1ccnc(SCc2cc(=O)c(NC(=O)c3ccccc3)co2)n1` [Compound 73], the 50% inhibitory concentration (IC50) (in assay [1]; on APJ) was above 79 µM in each case.

Turning to `Cc1ccnc(SCc2cc(=O)c(OC(=O)c3cnco3)co2)n1` [Compound 78], the IC50 (in assay [1]; on APJ) was above 79 µM in each case.

As to `Cc1cc(C)nc(SCc2cc(=O)c(OC(=O)c3cc([N+](=O)[O-])ccc3Cl)co2)n1` [Compound 53], the half-maximal inhibitory concentration (IC50) in assay [1] was found to be 49.7 ± 6.74 µM; at APJ it was 44.5 µM.

`Cc1ccnc(SCc2cc(=O)c(OC(=O)c3ccccc3Cl)co2)n1` [Compound 42]: the IC50 in assay [1] was above 79 µM.

As to `Cc1ccnc(SCc2cc(=O)c(OC(=O)c3cccc([N+](=O)[O-])c3)co2)n1` [Compound 31], the 50% inhibitory concentration (IC50) on APJ is 59.2 µM.

Turning to `O=c1cc(CSc2ccc(F)cc2)occ1O` [Compound 57], the IC50 (in assay [1]; on APJ) was above 79 µM throughout.

Turning to `O=C(Oc1coc(CSc2ncccn2)cc1=O)c1ccc(Cl)c([N+](=O)[O-])c1` [Compound 2], on APJ, the “SI = Selectivity Index” value is on record as above 13 and the IC50 amounted to 6.2 ± 0.77 µM.

Consider `Cc1ccnc(SCc2cc(=O)c(OC(=O)c3ccsc3)co2)n1` [Compound 76], for which the 50% inhibitory concentration (IC50) (in assay [1]; on APJ) was above 79 µM in each case.

`Cc1ccnc(SCc2cc(=O)c(OC(=O)c3ccccc3C)co2)n1` [Compound 46]: the IC50 (in assay [1]; on APJ) was above 79 µM in each case.

On to `Cc1cc(C)nc(SCc2cc(=O)c(OC(=O)c3ccc(Cl)c([N+](=O)[O-])c3)co2)n1` [Compound 49], for which the IC50 in assay [1] is above 79 µM. Moreover, at APJ, the “SI = Selectivity Index” value is recorded as above 15 and the IC50 came out at 5.45 ± 1.47 µM.

In the case of `O=C(Oc1coc(CSc2ncccn2)cc1=O)c1cc([N+](=O)[O-])ccc1Cl` [Compound 21], the values for the IC50 (in assay [1]; on APJ) were 60.1 ± 1.35 µM and 51 µM, respectively.

On to `Cc1ccnc(SCc2cc(=O)c(OC(=O)C(C)(C)C)co2)n1` [Compound 68], for which the half-maximal inhibitory concentration (IC50) (in assay [1]; at APJ) was above 79 µM each time.

Turning to `N#Cc1ccc(C(=O)Oc2coc(CSc3ncccn3)cc2=O)cc1` [Compound 7], the IC50 was above 79 µM in assay [1]; 6.59 µM and 9.77 µM on APJ. The “SI = Selectivity Index” value on APJ is >12 and >8.

For `Cc1cc(C)nc(SCc2cc(=O)c(OC(=O)c3ccc(-c4nccs4)cc3)co2)n1` [Compound 55], the concentration for half-maximal inhibition (IC50) (in assay [1]; at APJ) was above 79 µM throughout.

On to `Cc1ccnc(SCc2cc(=O)c(OC(=O)c3ccc(S(=O)(=O)N4CCCC4)cc3)co2)n1` [Compound 39], for which the IC50 on APJ was 39.9 ± 8.65 µM.

In the case of `Cc1cc(C)nc(SCc2cc(=O)c(OS(=O)(=O)c3ccccc3)co2)n1` [Compound 71], the IC50 (in assay [1]; at APJ) was above 79 µM each time.

Consider `O=C(Oc1coc(CSc2ncccn2)cc1=O)c1ccc(Cl)cc1` [Compound 5], for which the IC50 at APJ was 54.5 µM.

As for `Cc1cccc(C(=O)Oc2coc(CSc3nccc(C)n3)cc2=O)c1` [Compound 44], the concentration for half-maximal inhibition (IC50) (in assay [1]; on APJ) was above 79 µM in each case.

For `Cc1ccnc(SCc2cc(=O)c(OC(=O)c3ccc([N+](=O)[O-])o3)co2)n1` [Compound 77], the 50% inhibitory concentration (IC50) (in assay [1]; at APJ) was above 79 µM each time.

In the case of `Cc1ccnc(SCc2cc(=O)c(OC(=O)c3cc([N+](=O)[O-])ccc3Cl)co2)n1` [Compound 41], on APJ, the IC50 came out at 74.1 µM.

In the case of `Cc1cc(C)nc(SCc2cc(=O)c(OC(=O)c3cc(Cl)ccc3[N+](=O)[O-])co2)n1` [Compound 52], the IC50 is 49.7 ± 6.74 µM in assay [1] and above 79 µM on APJ.
